# Values joined by “and” are separate entries in the source; they are usually repeats but may differ in a detail not shown here. Equal entries are not always repeated. Where two headings read alike, the source gives them in different places.
# Legend:
# mice/rats = settings: in vivo; cited from earlier work
# [1] = long-term parenteral, 200 mg/kg; cited from earlier work
# SwN2a cells = settings: cited from earlier work
# BBB = settings: cited from earlier work; for Transport across BBB: 2 h
# children with NPC = settings: doses of up to 1000 mg/kg/d; cited from earlier work
# rats [2] = settings: cited from earlier work
# [3] = cited from earlier work
# [4] = test system: MDA-MB-231 breast cancer cells; assay: NSG mice injected with human MDA-MB-231 breast cancer cells; format: in vivo
# Procedure: NSG mice (NOD.Cg-Prkdcscid Il2rgtm1Wjl/SzJ, strain #005557 (10 wk old) were obtained from Jackson Laboratories (Bar Harbor, Me.), housed in isolated quarters, and fed with autoclaved water and food.
# An MDA-MB-231 cell line was obtained (ATCC) and kept frozen in liquid nitrogen. Upon start of culture, cells were thawed (1.5 min in 37° C. water) and transferred to DMEM/F-12 supplemented with 5% FBS, 2 mM L-glutamine, 1 mM sodium pyruvate, and 0.02 mM non-essential amino acids. Cells were grown to several millions in 60 mm dishes at 70-80% confluence. Before injection, cells were briefly rinsed twice in PBS followed by Versene (EDTA, Invitrogen) and placed on ice with excess phosphate-buffered saline and phenol red-free matrigel basement membrane extract to a concentration of about 15 mg/mL matrigel. 100 μL cell mixture (20,000 cells or saline only) were injected into the lactiferous duct of the 3rd or 4th mammary glands under brief isofluorane anesthesia. Groups of 15 mice each were injected IP with 800 mg/kg of HP-α-CD, HP-β-CD per week (over four days, Mon, Tue, Thu, Fri), or saline (control) for six weeks. Size of the primary tumor was measured weekly.
# Breast tissue were palpated and measured twice a week with a micro-metric analytical device scaled to 1 mm precision. Mice were weighed weekly on a digital scale (0.1 g precision).
# At the end of the study period, mice were anaesthetized with isofluorane with 1× phosphate-buffered saline (PBS) and subsequently with 4% formaldehyde in PBS. Tissue from lung and liver were removed and fixated in formalin for microscopic examination. Metastases were visualized and counted by tissue embedding in paraffin and sectioning with immunohistochemistry and histological stain (H&E) and immunostained with anti-HLA antibody. After blocking for 1 h with BSA (5%, frac V), the anti-HLA was incubated at 4° C. overnight, washed for 1 h in PBS, then incubated with biotinylated anti-mouse IgG for 1 h at room temperature. After washing with PBS, metastases were detected on the slide using Envision (Dako).
# After blood collection, whole blood samples were centrifuged (at 10,000 m/s^2 for 15 min and then at 100,000 m/s^2 for 10 min), and plasma was isolated. The samples were stored at −80° C. until analysis.
# Prior to analysis (30 min), samples and assay reagents were equilibrated to room temperature. The samples were run at a 1:4 dilution and quantified in duplicate using a multi-plex mouse panel for quantification of IL-1β, IL-18, IL-6, IL-8, IL-17A, and GM-CSF (Bio-Plex Pro assays, Bio-Rad Laboratories) on a Luminex Bio-Plex 200 System (Bio-Rad Laboratories).
# [5] = test system: MDA-MB 231 and MCF-7 human breast epithelial cell lines; assay: Wound healing / gap closure migration assay; format: cell-based; settings: 2 h treatment, MDA-MB 231 and MCF-7
# Procedure: Published results have shown that β-CD inhibits human MDA-MB 231 cell migration (Guerra F S, Sampaio LdS, et al. (2016) Translational Medicine Communications 1:3). This inhibition was attributed to the ability of β-CD to “deplete cholesterol”. β-CD, however, depletes also phospholipids. […] Cells were cultured in 24-well culture plates (Cytoselect CBA-120, 0.9 mm wound healing/gap closure migration assay) for 24 h with wound healing insert in place. Cells were then treated for 2 h with HP-β-CD, HP-α-CD, or control. Protocol: Warm up the 24-well plate (CBA-120, Cell BioLabs Inc.) with 0.9 mm CytoSelect Wound Healing Inserts at room temperature for 10 min. Using sterile forceps, orient the desired number of inserts in the plate wells with their “wound field” aligned in the same direction. […] Add 500 μL of cell suspension to each well by carefully inserting the pipette tip through the open end at the top of the insert. For optimal cell dispersion, add 250 μL of cell suspension to either side of the open ends at the top of the insert. Incubate cells in a cell culture incubator for 12-24 hours. Carefully remove the insert from the well to begin the wound healing assay. Use sterile forceps to grab and lift the insert slowly from the plate well. Slowly aspirate and discard the media from the wells. Wash wells with media to remove dead cells and debris. Finally, add media to wells to keep cells hydrated. Repeat wash if wells still have debris or unattached cells. When washing is complete, add media with FBS and/or compounds to continue cell culture and wound healing process. Agents that inhibit or stimulate cell migration can be added directly to the wells. Incubate cells in a cell culture incubator (2 hours) and then wash cells with PBS and then add fresh media without compounds. Incubate 12-24 hours before wash and fixing. Remove the fixation solution and add 400 μL of Cell Stain Solution to each well. Allow the stain to incubate with the cells for 15 minutes at room temperature. Aspirate and discard the solution. Carefully wash each stained well 3× with deionized water. Discard washes and allow cells to dry at room temperature. Cells that migrated into the wounded area or protruded from the border of the wound were visualized and photographed under an inverted microscope. Determine the surface area of the defined wound area: Total Surface Area=0.9 mm×length. Determine the surface area of the migrated cells into the wound area: Migrated Cell Surface Area=length of cell migration (mm)×2× length. Percent Closure (%)=Migrated Cell Surface Area/Total Surface Area×100 (see FIG. 36)
# cats = settings: doses of 4-8 g/kg; cited from earlier work
# [6] = cited from earlier work; remark: listed apart in the source
# [7] = cited from earlier work; for Permitted Daily Exposure (PDE) threshold, parenteral: CHMP 2014; for Permitted Daily Exposure (PDE) threshold, parenteral, revised: Oct. 9, 2017
# [8] = rats, suppositories containing triglycerides (Witepsol H5); cited from earlier work
# [9] = cited from earlier work; remark: listed apart in the source
# whole blood = settings: cited from earlier work
# [10] = cited from earlier work; remark: listed apart in the source
# keratinocytes = settings: cited from earlier work
# [11] = parenteral, 12 g twice daily for 15 days; cited from earlier work
# Tg19959 mice = settings: four months of subcutaneous administration; cited from earlier work
# [12] = 2.1% α-CD added to Western diet; cited from earlier work
# rats [13] = settings: cited from earlier work; remark: listed apart in the source
# rats [14] = settings: s.c. single dose 0.100 g/kg; cited from earlier work
# erythrocytes [15] = settings: cited from earlier work
# [16] = test system: fibroblasts of lysosomal storage diseases; settings: about 6 mM α-CD, about 8 mM HP-β-CD; cited from earlier work
# rats [17] = settings: cited from earlier work; remark: listed apart in the source
# erythrocytes [18] = settings: cited from earlier work; remark: listed apart in the source
# [19] = cited from earlier work; remark: listed apart in the source
# [20] = IP 800 mg/kg per week for six weeks
compound,measurement,setting,value
"CC(O)COC[C@H]1O[C@@H]2O[C@H]3[C@H](O)[C@@H](O)[C@@H](O[C@H]4[C@H](O)[C@@H](O)[C@@H](O[C@H]5[C@H](O)[C@@H](O)[C@@H](O[C@H]6[C@H](O)[C@@H](O)[C@@H](O[C@H]7[C@H](O)[C@@H](O)[C@@H](O[C@H]8[C@H](O)[C@@H](O)[C@@H](O[C@H]1[C@H](O)[C@H]2O)O[C@@H]8COCC(C)O)O[C@@H]7COCC(C)O)O[C@@H]6COCC(C)O)O[C@@H]5COCC(C)O)O[C@@H]4COCC(C)O)O[C@@H]3COCC(C)O (stereo partly drawn) [HP-β-CD, hydroxypropyl-beta-cyclodextrin]",LD50 i.v./i.p. in mice/rats,mice/rats,10000 mg/kg
same,bone mineral density (BMD),[1],decrease bone mineral density (BMD)
same,level of membrane cholesterol,SwN2a cells,reduced
same,levels of Aβ42,SwN2a cells,dramatically lowered
same,Transport across BBB,BBB; 1 mM,6.6 (1 mM) %
same,BBB breakdown,BBB,2.5 mM
same,toxicity on the BBB model,BBB,similarly safe
same,tolerability,children with NPC,well tolerated
same,"i.v. toxicity, 1 g/kg daily","rats [2]; rat, in vivo, iv",no signs ^6)
same,"i.v. toxicity, 500 mg/kg",[3],no damage
same,"Tumor volume, median",[4]; [20],378 mm3
same,effect on tumor volume,[4]; [20],effective
same,"plasma cytokines (IL-1β, IL-18, IL-6, IL-8, IL-17A, GM-CSF) versus Vehicle",[4]; conventional 0.05 level,significant in four other markers (not in IL-8)
same,mice that did not develop lung metastases,[4]; groups of 15 mice,3 mice
same,mice who died,[4]; groups of 15 mice,two
same,"cell migration / wound closure, concentration dependence",[5],migration decreased with higher concentration
same,hearing,cats,causes permanent hearing loss
same,excreted after i.v. unchanged in urine,[6],~90%
same,"Permitted Daily Exposure (PDE) threshold, parenteral",[7],10 mg/kg/day
same,"Permitted Daily Exposure (PDE) threshold, parenteral, revised",[7],200 mg/kg/day
same,rectal absorption,[8],26%
same,Solubility in water,[9],>600 g/l and >600 ^2) g/l
same,whole blood TD50,whole blood,9 mM/L
same,half-life (t1/2) after i.v. in rats,[10],20 min
same,oral absorption in rats,[10],≤3%
same,caspase-dependent apoptotic cell death,keratinocytes,not
same,side effects,[11],No side effects were observed
same,spatial learning and memory deficits,Tg19959 mice,significantly improved spatial learning and memory deficits
"OC[C@H]1O[C@@H]2O[C@H]3[C@H](O)[C@@H](O)[C@@H](O[C@H]4[C@H](O)[C@@H](O)[C@@H](O[C@H]5[C@H](O)[C@@H](O)[C@@H](O[C@H]6[C@H](O)[C@@H](O)[C@@H](O[C@H]7[C@H](O)[C@@H](O)[C@@H](O[C@H]1[C@H](O)[C@H]2O)O[C@@H]7CO)O[C@@H]6CO)O[C@@H]5CO)O[C@@H]4CO)O[C@@H]3CO [α-CD, alpha-cyclodextrin]",LD50 i.v./i.p. in mice/rats,mice/rats,500 to 1000 mg/kg
same,decrease of plasma phospholipids,[12],17.5%
same,LD50 with bolus i.v. injections,rats [13],1000 mg/kg
same,Nephrosis (light microscopy),rats [14],0.100 no changes
same,Transport across BBB,BBB; 0.5 mM,21.5 (0.5 mM) %
same,toxicity on the BBB model,BBB,more toxic
same,"i.v. toxicity, 1 g/kg daily",rats [2]; 1 g/kg daily,1 died @ 2 d
same,excreted after i.v. unchanged in urine,[6],~90%
same,hemolytic activity,erythrocytes [15]; comparison between cyclodextrins,lower than that of both β-CD and HP-β-CD
same,IC50,erythrocytes [15]; read-out: hemolytic IC50,16 mM
same,reduction of lysosomal storage,[16],more effective in reducing lysosomal storage than about 8 mM HP-β-CD
same,Nephrosis/Death,rats [17]; s.c. daily doses 0.100 g/kg,0.100 no nephrosis
same,Nephrosis,rats [17]; s.c. daily doses 1.000 g/kg,"1.000 all had severe nephrosis,"
same,Death,rats [17]; s.c. up to 7 daily doses of 1.000 g/kg,one rat died (after 2 days)
same,reduction of phospholipids,"erythrocytes [18]; 10 mM, FIG. 3",30%
same,extraction of cholesterol,erythrocytes [18],negligible even at hemolytic concentrations
same,found in urine within 6-8 h post oral administration,[19],1.6% and 2.0%
same,"Permitted Daily Exposure (PDE) threshold, parenteral",[7],0.02 mg/kg/day
same,"Permitted Daily Exposure (PDE) threshold, parenteral, revised",[7],200 mg/kg/day
same,whole blood TD50,whole blood,11 mM/L
same,half-life (t1/2) after i.v. in rats,[10],25 min
same,oral absorption in rats,[10],2-3%
same,caspase-dependent apoptotic cell death,keratinocytes,not

# Source: patent US11471478B2, “Use of cyclodextrins in diseases and disorders involving phospholipid dysregulation” (priority 2017, dated 2022)
